Results on 70 compounds are retold here after PubChem BioAssay AID179 (DTP/NCI, 2004).

Calls of active or inactive are those of the source.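 Rule for the calls: active = compounds giving half or more protection of infected cells from virus-caused growth loss, again on retest; inactive = the rest.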 Some results are limits rather than exact numbers.

The test relates to CEM cells HIV-1 protection, formazan growth assay. The experiment in a line: NCI AIDS Antiviral Assay. The following applies: for IC50: measured here: growth of uninfected CEM cells. The gist of the method:
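Category rules: moderately active means at least 50% protection on retest, and confirmed active means 100% protection reproducibly. The underlying data came from a formazan growth assay in HIV-1-infected CEM cells.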

Consider `CC(C)[Si]1(C(C)C)OCC2OC(n3ccc(=O)[nH]c3=O)C([Se]c3ccccc3)C2O[Si](C(C)C)(C(C)C)O1` (stereo not drawn), for which the EC50 was greater than 200 µM and the IC50 was 10.7 µM.
With `O=S(=O)(O)c1cc(N=Nc2cc(S(=O)(=O)O)c3cccnc3c2O)ccc1CCc1ccc(N=Nc2cc(S(=O)(=O)O)c3cccnc3c2O)cc1S(=O)(=O)O`, the concentration giving a half-maximal response (EC50) was 1.7 µM and the IC50 stood at 9.33 µM.
As to `COC(=O)CCCC=C(c1cc(Br)c(OC)c(C(=O)OC)c1)c1cc(Br)c(OC)c(C(=O)OC)c1`, the EC50 is 1.82 µM and the IC50 was 42.7 µM.
The matching figures for `CCc1c(C)c(C#N)c(=S)n(C2OC(CO)C(O)C(O)C2O)c1C` (stereo not drawn): greater than 200 µM and greater than 200 µM.
For the compound `NC(=O)NC12CC3CC(CC(F)(C3)C1)C2`, the EC50 was greater than 1170 µM and the IC50 is greater than 1170 µM.
In the case of `CCCCCCCCCCCCCCCCOP(=O)([O-])OCC[N+](C)(C)C`, the EC50 is greater than 309 µM and the IC50 turned out to be 2.45 µM.
In the case of `c1ccc2nn(C3CCCO3)nc2c1` (stereo not drawn), the EC50 is greater than 200 µM and the IC50 was greater than 200 µM.
`Cc1cc(N(CCC#N)S(=O)(=O)c2ccccc2)ccc1C=O`: the EC50 was greater than 110 µM and the IC50 was greater than 110 µM.
Take `CC(C)(C)Cc1cssc1=S`: the EC50 was greater than 200 µM and the IC50 is greater than 200 µM.
As to `Cc1c2c(cc3c1OCN(Cc1ccccc1)C3)CN(Cc1ccccc1)CO2`, the EC50 was greater than 200 µM and the IC50 worked out at 30.9 µM.
For the compound `CCOC(=O)/C=C(/c1cc(C)[nH]c1C)N(CC)CC`, the EC50 is greater than 200 µM and the IC50 was greater than 200 µM.
For `O=S(=O)(O)C(Br)(Br)Br`, the EC50 is greater than 200 µM and the IC50 was greater than 200 µM.
`O=C(C[C@H](NC(=O)OCc1ccccc1)C(=O)NC1Cc2ccccc2OC1=O)OCc1ccccc1` (stereo partly drawn): the EC50 was greater than 200 µM and the IC50 was 93.3 µM.
Take `CC(=O)[O-].CC(=O)[O-].O=C(N/N=C/c1cc(Cl)cc(Cl)c1O)c1ccncc1.[Cu+2]`: the outcome was inactive.
On to `O=C1OC2C=CCC1C2` (stereo not drawn), for which the EC50 was greater than 200 µM and the IC50 is greater than 200 µM.
In the case of `OCC1(CO)CCC1(CO)CO`, the outcome was inactive.
On to `C[n+]1c(-c2ccc(/C=N\NC(=O)c3ccc(C(=O)N/N=C/c4ccc(-c5cn6ccsc6[n+]5C)cc4)cc3)cc2)cn2ccsc21`, for which the EC50 is greater than 50.1 µM and the IC50 came to 0.501 µM.
With `CCOC(=O)C(/C=N\C(=S)Nc1ccc(Cl)c(Cl)c1)=C(/O)c1ccccc1`, the EC50 was greater than 200 µM and the IC50 worked out at 24 µM.
On to `COC1c2ccccc2CC(c2ccccc2)=NN1C(C)=O` (stereo not drawn), for which the EC50 was greater than 89.1 µM and the IC50 was 51.3 µM.
Take `Nc1ncnc2oc(-c3ccccc3)nc12`: the EC50 was greater than 195 µM and the half-maximal inhibitory concentration (IC50) was greater than 195 µM.
With `CCCCCCOc1ccc(C(=N)N(CCCC)CCCC)c2ccccc12`, the EC50 is greater than 200 µM and the IC50 is 3.39 µM.
In the same order, the values of `CCc1nc2cc(F)ccc2[nH]c1=O` are greater than 200 µM and 132 µM.
In the same order, the values of `O=C1C2Nc3ccccc3SC2C(=O)N1c1ccc(Br)cc1` (stereo not drawn) are greater than 19.1 µM and greater than 19.1 µM.
With `CN1C(=O)CC2CCC(=O)N2c2cccnc21` (stereo not drawn), the EC50 is greater than 200 µM and the IC50 was greater than 200 µM.
Take `Cn1c(N)c2c(=O)n(C)c3c(c2c(C#N)c1=O)CCSc1ccccc1-3`: the EC50 was greater than 9.33 µM and the IC50 is greater than 9.33 µM.
In the case of `C=CC(C)(C)N1c2ccccc2[C@]2(O)C[C@@H]3C(=O)N4/C=C\C(C)(C)c5[nH]c6ccccc6c5/C=C\4C(=O)N3[C@H]12`, the outcome was inactive.
Regarding `O=C(OCn1ncc2ccc([N+](=O)[O-])cc21)c1ccc(Cl)c(Cl)c1`, the EC50 was greater than 200 µM and the IC50 amounted to 129 µM.
Turning to `NC1=NC(Cn2nc(-c3ccccc3)c3ccccc3c2=O)=NNC(=O)N1`, the EC50 was greater than 20 µM and the IC50 is greater than 20 µM.
Consider `O=C1c2ccccc2C(=O)N1N1C(=O)C2C3CCC(O3)C2C1=O` (stereo not drawn), for which the EC50 is greater than 200 µM and the half-maximal inhibitory concentration (IC50) stood at 95.5 µM.
For `COc1ccc2nc(NC(=O)C(=O)CC(=O)c3ccc([N+](=O)[O-])cc3)sc2c1`, the outcome was inactive.
Turning to `C/C(CC(=O)Nc1ccc(Cl)c(Cl)c1)=N/NC(=O)C[N+](C)(C)C`, the EC50 is greater than 34.7 µM and the IC50 is greater than 34.7 µM.
In the case of `C=C1C[C@H]2[C@@H]3C=C(C)C4=CC(=O)CC[C@]4(C)[C@H]3CC[C@]2(C)[C@@]1(OC(C)=O)C(C)=O`, the EC50 was greater than 200 µM and the IC50 was 28.2 µM.
As for `O=[N+]([O-])c1cccc(C2ON2C2CCCCC2)c1` (stereo not drawn), the EC50 is greater than 89.1 µM and the IC50 stood at 5.01 µM.
Consider `O=C(Nc1cc(Cl)c(Cl)cc1Cl)C(=O)C(C(=O)c1ccccc1)C1OC(=O)c2ccccc21` (stereo not drawn), for which the outcome was inactive.
With `Cc1nc2c(c(=O)[nH]1)S/C(=C(/C#N)c1nc3ccccc3[nH]1)N2c1ccccc1`, the EC50 was greater than 3.63 µM and the IC50 is greater than 3.63 µM.
Turning to `Oc1ccc(S)cc1CNC1CCCCC1`, the EC50 was greater than 200 µM and the IC50 was found to be 13.2 µM.
The matching figures for `OCCC[N+]12CCCN1CCC2`: greater than 200 µM and greater than 200 µM.
As for `O=C1/C(=C/c2cccc(Br)c2)CCc2ccccc21`, the EC50 is greater than 200 µM and the IC50 worked out at 7.24 µM.
In the same order, the values of `CCSCCCCCCCCCCC(=O)O` are greater than 200 µM and 63.1 µM.
As to `COP(=O)(OC)C1=c2c(C)noc2=C2C=COC2C1=O` (stereo not drawn), the EC50 is greater than 200 µM and the IC50 is greater than 200 µM.
With `CC(/C(=N/NC(=O)C(N)=O)c1c(Cl)ccc(Cl)c1O)C1(O)C(=O)Nc2ccccc21` (stereo not drawn), the EC50 was greater than 11.5 µM and the IC50 is greater than 11.5 µM.
For the compound `CC(=O)/C(=C/N1C(=O)CC(=O)NC1=S)C(=O)Nc1ccccc1C`, the EC50 is greater than 200 µM and the IC50 amounted to 178 µM.
Regarding `CC(O)C(NC(=O)C1CSSCC(NC(=O)C(Cc2ccccc2)NC(=O)OCC2c3ccccc3-c3ccccc32)C(=O)NC(Cc2ccccc2)C(=O)NC(Cc2cn(C=O)c3ccccc23)C(=O)NC(CCCCNC(=O)OCC2c3ccccc3-c3ccccc32)C(=O)NC(C(C)O)C(=O)N1)C(N)=O` (stereo not drawn), the EC50 is greater than 50.1 µM and the concentration for half-maximal inhibition (IC50) came out at 6.46 µM.
With `CN(NC(=O)/C(=C/C=C/c1ccccc1)NC(=O)c1ccccc1)c1cnn(-c2ccccc2)c(=O)c1Cl`, the EC50 is greater than 200 µM and the IC50 worked out at 3.24 µM.
On to `CC(=O)NCCSSCCSC(=S)N1CCCCC1`, for which the EC50 was greater than 200 µM and the IC50 came out at 33.9 µM.
`O=[N+]([O-])/C=C/c1cn(CCCCCn2cc(/C=C/[N+](=O)[O-])c3ccccc32)c2ccccc12`: the EC50 is greater than 200 µM and the IC50 is 2.63 µM.
The matching figures for `COC1=CC23C=CC1[C@@H](c1ccccc1)C2=C(C)C(=O)N3C(=O)NC1CCCCC1` (stereo partly drawn): greater than 12.9 µM and greater than 12.9 µM.
With `COc1ccc(NC(=S)NNC(=O)c2nsc3ccccc23)cc1`, the EC50 was greater than 138 µM and the IC50 worked out at 19.1 µM.
With `O=C(CC1=Nc2nnc(CCCCCCCc3nnc4n3C(=O)C(CC(=O)c3ccc5ccccc5c3)=N4)n2C1=O)c1ccc2ccccc2c1`, the EC50 was greater than 4.07 µM and the IC50 is greater than 4.07 µM.
Consider `O=c1[nH]nc(-c2ccccc2)n1/N=C/c1cccc([N+](=O)[O-])c1`, for which the EC50 was greater than 200 µM and the IC50 stood at 24.5 µM.
`C/C(=N\NC(N)=S)C(CN1CCCCC1)C(C1=C(O)c2ccccc2OC1)c1ccccc1` (stereo not drawn): the EC50 is greater than 224 µM and the IC50 was 123 µM.
In the same order, the values of `Brc1cc2c(cc1C1SCCS1)OCO2` are greater than 107 µM and 60.3 µM.
With `CCSc1cc(=O)n(C)c(=O)n1C`, the result was inactive.
Regarding `O=S(=O)(c1ccccc1)c1ccccc1`, the EC50 is greater than 204 µM and the IC50 was greater than 204 µM.
With `N#Cc1cc([N+](=O)[O-])ccc1NC(=O)C(=O)Nn1c(=S)[nH]c2ccccc2c1=O`, the outcome was inactive.
Take `CC(C)C(NCc1c2ccccc2[n+](C)c2ccccc12)C(=O)O` (stereo not drawn): the result was inactive.
Same read-out and setting: in the case of `COc1ccccc1Cc1nc(-c2ccccc2)nn(C2OC(COC(C)=O)C(OC(C)=O)C(OC(C)=O)C2OC(C)=O)c1=S` (stereo not drawn) it was “inactive”.
Take `Fc1ccccc1C1SCc2nc3cc4ccccc4cc3n21` (stereo not drawn): the EC50 is greater than 200 µM and the IC50 amounted to 75.9 µM.
For the compound `CC1(C)CCc2cc3c(cc2O1)OC(C)(C)C1c2c(ccc4c2CCC(C)(C)O4)OC31` (stereo not drawn), the outcome was inactive.
In the case of `CC(=O)OC1C[C@H]2C(OC(=O)c3ccccc3)C3C4(OC(C)=O)COC4C[C@H](OC(C)=O)[C@@]3(C)C(OC(C)=O)[C@H](OC(C)=O)C(=C1C)C2(C)C` (stereo partly drawn), the EC50 is greater than 35.5 µM and the IC50 was greater than 35.5 µM.
For `CC1(C)CCCC2(C)C1CCC1(C)OC3=CC(=O)C(O)=CC3=CC12` (stereo not drawn), the EC50 is greater than 30.2 µM and the IC50 amounted to 2.82 µM.
The matching figures for `C[N+](C)([O-])Cc1cccc(NC(=O)c2ccc(C(=O)Nc3cccc(C[N+](C)(C)[O-])c3)cc2)c1`: greater than 200 µM and greater than 200 µM.
For `CCOc1ccc(N=Nc2ccc3oc(=O)c(/C(C)=N/NC(=O)CC(=O)Nc4cccc(OC)c4)cc3c2)cc1`, the EC50 was greater than 13.2 µM and the IC50 was greater than 13.2 µM.
For the compound `C1CC(C2OCOC3COCOC32)OO1` (stereo not drawn), the EC50 was greater than 200 µM and the IC50 is greater than 200 µM.
With `O=c1c2cc3ccccc3n2c(=O)c2cc3ccccc3n12`, the EC50 was greater than 5.01 µM and the IC50 is greater than 5.01 µM.
Take `COc1cc2c(cc1O)-c1oncc1CCC2`: the EC50 is greater than 77.6 µM and the IC50 was greater than 77.6 µM.
With `NC(CSS(=O)(=O)O)=NCCCc1ccccc1`, the EC50 was greater than 200 µM and the IC50 was found to be 110 µM.
For the compound `CCCCCC=C(c1cc(C)c(OC)c(C(=O)OC)c1)c1cc(C)c(OC)c(C(=O)OC)c1`, the EC50 was greater than 51.3 µM and the IC50 came out at 25.7 µM.
On to `CCC(=O)N(C)[C@@H](C)C(=O)O[C@H]1CC(=O)N(C)c2cc(cc(OC)c2Cl)C/C(C)=C/C=C[C@@H](OC)[C@@]2(O)C[C@H](OC(=O)N2)[C@@H](C)[C@@H]2O[C@@]12C`, for which the outcome was inactive.
With `COc1cc2ccc(CC#N)cc2cc1OC`, the outcome was inactive.

By EC50 is commonly meant the concentration needed to bring the measured effect to its halfway point. One may read the IC50 as the concentration at which inhibition is half-maximal.
